From US5747660A, “Nucleic acid encoding prostaglandin F2α receptor regulatory protein” (priority 1995, dated 1998)

Test system: prostaglandin F2α receptor (FP)
Assay: Effect of intracellular messenger altering agents on [3H]PGF2α binding and on FPRP inhibition of it
Type: cell-based
Conditions: for % Control [^3 H]PGF2α Binding, FP + FPRP: FP + FPRP transfected cells treated with the agent; for % Control [^3 H]PGF2α Binding, FP + pSG5: FP + pSG5 transfected cells treated with the agent; for % Inhibition (FPRP inhibition of [^3 H]PGF2α binding): in presence of the agent at the concentration/time given; for effect of agent on FPRP inhibition of [^3 H]PGF2α binding (words): FP + FPRP transfected cells pretreated with the agent; for effect of agent on basal [^3 H]PGF2α binding: FP transfected cells pretreated with the agent
Procedure: In a third experiment, transfected cells were treated for 30 min with exposure to the following: phorbol 12-myristate 13-acetate 10^-8 M, prostaglandin E1, 10^-7 M, A23187 10^-6 M, okadaic acid 10^-6 M, or 8-Br-cAMP 10^-5 M (Table 4).
The effect of brefeldin A (3 μg/ml, 2 hr), chloroquine (100 μM, 6 hr) and tunicamysin (2.5 μg/ml, 20 hr) was determined.

| Compound | % Control [^3 H]PGF2α Binding, FP + FPRP [%] | % Control [^3 H]PGF2α Binding, FP + pSG5 [%] | % Inhibition (FPRP inhibition of [^3 H]PGF2α binding) [%] | effect of agent on FPRP inhibition of [^3 H]PGF2α binding (words) | effect of agent on basal [^3 H]PGF2α binding | effect of agent on FPRP inhibition of [^3 H]PGF2α binding (words) (listed as brefeldin A) |
| --- | --- | --- | --- | --- | --- | --- |
| CCCCCCCCCCCCCC(=O)OC1C(C)C2(O)C(C=C(CO)CC3(O)C(=O)C(C)=CC32)C2C(C)(C)C12OC(C)=O (stereo not shown) [Phorbol 12-myristate 13-acetate, phorbol 12-myristate 13-acetate] | 54 ± 3 | 105 ± 7 | 50 | – | – | – |
| tunicamycin | 23 ± 3 | 46 ± 3 | 50 | approximately the same extent | decreased | – |
| C[C@H]1CCC/C=C/[C@@H]2C[C@H](O)C[C@H]2[C@H](O)/C=C/C(=O)O1 [Brefeldin A, brefeldin A] | 27 ± 3 | 91 ± 3 | 70 | no effect | little or no effect | little or no effect |
| Nc1ncnc2c1nc(Br)n2[C@@H]1O[C@@H]2COP(=O)(O)O[C@H]2[C@H]1O [8-Br-cAMP] | 52 ± 3 | 94 ± 6 | 45 | – | – | – |
| CNc1ccc2oc(C[C@H]3O[C@@]4(CC[C@H]3C)O[C@H]([C@H](C)C(=O)c3ccc[nH]3)[C@H](C)C[C@H]4C)nc2c1C(=O)O [Calcium ionophore A23187] | 51 ± 6 | 102 ± 6 | 50 | – | – | – |
| CCCCC[C@H](O)/C=C/[C@H]1[C@H](O)CC(=O)[C@@H]1CCCCCCC(=O)O [PGE1, prostaglandin E1] | 51 ± 3 | 100 ± 3 | 49 | – | – | – |
| CCN(CC)CCCC(C)Nc1ccnc2cc(Cl)ccc12 (stereo not shown) [Chloroquine, chloroquine] | 37 ± 3 | 91 ± 3 | 59 | little or no effect | little or no effect | – |
| C=C1[C@@H](O)[C@@H]2O[C@]3(CC[C@H](/C=C/[C@@H](C)[C@@H]4CC(C)=C[C@@]5(O[C@H](C[C@@](C)(O)C(=O)O)CC[C@H]5O)O4)O3)CC[C@H]2O[C@@H]1[C@@H](O)C[C@H](C)[C@H]1O[C@@]2(CCCCO2)CC[C@H]1C [Okadaic acid, okadaic acid] | 45 ± 3 | 94 ± 3 | 52 | – | – | – |
